Test results published in the NIST ThermoML archive (doi:10.1016/j.fluid.2015.08.007).
Several values for one entry are separate records, joined by “and”; a condition that tells them apart may be missing. Equal values may be shown once. Numbers after ± are expanded uncertainties.

Conditions: DTA

Normal melting temperature (Crystal)	Normal melting temperature (Crystal 1) [°C]	Structure (SMILES)
204 ± 2 °C	204 ± 2	CCCC[N+]1(C)CCCC1.[Br-] [1-butyl-1-methylpyrrolidinium bromide]
201 ± 2 °C and 204 ± 2 °C	–	CCCC[N+]1(C)CCCC1.[Cl-] [1-butyl-1-methylpyrrolidinium chloride]

The remaining lines, values behind:

Structure (SMILES)	Normal melting temperature (Crystal)	Normal melting temperature (Crystal 1) [°C]
CC[N+]1(C)CCCC1.F[B-](F)(F)F [1-ethyl-1-methylpyrrolidinium tetrafluoroborate]	66 ± 2 °C	–
CCCC[N+]1(C)CCCC1.F[B-](F)(F)F [1-butyl-1-methylpyrrolidinium tetrafluoroborate]	152 ± 2 °C and 151 ± 2 °C	–
CC[N+]1(C)CCCC1.O=S(=O)([N-]S(=O)(=O)C(F)(F)F)C(F)(F)F	91 ± 2 °C	–
